Data set [1] is described as follows: pH measurement of the solution. Format: physicochemical. The protocol: (§1) The peroxide concentration is determined by a potassium permanganate titration procedure and the devices used for the measurement of pH, ORP and conductivity are a WTW 537, a Testo 230 ORP and a HANNA EC device, respectively.
Data set [2] is described as follows: oxidation-reduction potential (ORP) measurement of the solution. It is filed as physicochemical. On the procedure: as §1
Data set [3] is described as follows: electrical conductivity measurement of the solution. Format: physicochemical. On the procedure:
as §1

The subject of data set [4] is Corynebacterium minitissium. As to the kind of experiment: test of corona treated solution against strains of bacteria (Example 3). As to conditions: after 5 minutes. It is filed as cell-based. On the procedure:
(§2) The corona treated solution was then tested against several strains of bacteria and compared to untreated solutions of 1% hydrogen peroxide.

The test system of data set [5] is E. coli. The data set is described as above. Conditions: after 5 minutes. It is filed as cell-based. On the procedure: as §2
The subject of data set [6] is Lysteria. The description is as above. It is filed as cell-based. As to conditions: after 5 minutes. The protocol:
as §2

Data set [7] relates to Escherichia coli. As to the kind of experiment: bactericidal suspension test conform EN 1040 (Example 1). Format: cell-based. As to conditions: after 5 minutes. On the procedure: (§3) In a controlled bactericidal suspension test conform European Norm for testing of basic bactericidal activity of chemical disinfectants and antiseptics EN 1040, a 1 ml McFarland standard 0.5 (10^8 microorganisms per ml) was mixed 1:8 with the activated peroxide solution and 1 ml milli-Q water. After 10 minutes, Staphylococcus aureus was killed 100%, while Escherichia coli, Salmonella typhimurium, Rhodotorula rubra and Pseudomonas aeruginosa were all killed 100% already after 5 minutes. A 100% kill typically is shown by at least a log 5 reduction.

For data set [8], the system named is Pseudomonas aeruginosa. The data set is described as above. Format: cell-based. Conditions: after 5 minutes. On the procedure:
as §3

For data set [9], the system named is Rhodotorula rubra. The data set is described as above. It is filed as cell-based. Conditions: after 5 minutes. The protocol:
as §3

For data set [10], the system named is Salmonella typhimurium. The data set is described as above. Format: cell-based. As to conditions: after 5 minutes. The protocol: as §3
The subject of data set [11] is Staphylococcus aureus. The data set is described as above. Format: cell-based. The protocol: as §3

Each structure is given as a SMILES string. Read-outs that look alike come from different tables or passages of the source.

Data on nine molecules can be found in patent US20070110779A1, “Activated peroxide solutions and a process for the preparation thereof” (ASEPTIX TECHNOLOGIES B.V., priority 2005, published 2007).

For `OO` [Example 3 starting solution, hydrogen peroxide], the “pH of the solution” value in data set [1] is on record as 4.5. In data set [2], the “ORP of the solution” value is 380 mV. In [3], this molecule showed a conductivity of 17.8 microSiemens/cm.

On to `OO` [Example 1 solution before activation, hydrogen peroxide], for which, in data set [1], the “pH of the solution” value is recorded as 5.8.

As for `OO` [5% H2O2, hydrogen peroxide], the “pH of the solution” value in [1] is given as “approximately 3.7”. Also, the “ORP of the solution” value in [2] was 428 mV. Also, the conductivity in data set [3] amounted to 90 μS/cm.

As to `OO` [standard 1% hydrogen peroxide, hydrogen peroxide], the reduced with log result in data set [4], in [5] and in [6] was “no countable reduction” throughout. For the same molecule, the “pH of the solution” value in [1] (listed as 1% H2O2) is “approximately 4.4”. For the same molecule, the “ORP of the solution” value in data set [2] (listed as 1% H2O2) turned out to be 390 mV. Moreover, the conductivity in data set [3] (listed as 1% H2O2) is listed as 30 μS/cm.

As to `OO` [3% H2O2, hydrogen peroxide], the “pH of the solution” value in data set [1] is “approximately 3.9”. The “ORP of the solution” value in data set [2] is 411 mV. The molecule also registered a conductivity in data set [3] of 60 μS/cm.

Take `OO` [0.5% H2O2, hydrogen peroxide]: the “pH of the solution” value in data set [1] is listed as “approximately 4.6”. Also, the “ORP of the solution” value in [2] is on record as 374 mV. For the same molecule, the conductivity entry in data set [3] was “approximately 21 μS/cm”.

With `OO` [0.1% H2O2, hydrogen peroxide], in [1], the “pH of the solution” value is listed as “approximately 4.9”. In data set [2], the “ORP of the solution” value worked out at 355 mV. For the same molecule, the conductivity in [3] is given as 20 μS/cm.

For `OO` [1.6% common hydrogen peroxide solution, hydrogen peroxide], the killed in [7], in [8] and in data set [9] was below 100% in each case. This molecule displayed a killed / reduction in data set [10] of 70%. Also, the values for the reduction entry in data set [11] (after 5 minutes) and in [11] (after 20 minutes) were “none” and 50%, respectively.

Regarding `OO` [10% H2O2, hydrogen peroxide], in [1], the “pH of the solution” value is listed as “approximately 3.3”. Besides, in data set [2], the “ORP of the solution” value stood at 446 mV. The same molecule displayed a conductivity in data set [3] of 110 μS/cm.
